From patent US4209442A, “Angiotensin II analogs and process for the preparation thereof” (Richter Gedeon Vegyeszeti Gyar Rt., priority 1977, dated 1980)

Tested on: hypertension induced by angiotensin II
Experiment: Decrease in blood pressure after intravenous administration, under i.v. infusion of angiotensin II
Type: in vivo, tomcats
Details: single dose, angiotensin II infusion 0.5 μg/kg/min, average of 6 experiments
Procedure: The antagonistic activity of the compounds having the formula I was tested on tomcats. The blood pressure was measured on the cervical artery. The tests were performed by introducing a Hypertension (CIBA) infusion into a lateral femoral vane at a speed of 0.5 μg/kg/min. When the increase in blood pressure was stabilized, the aqueous, physiological or carrier-containing solutions of the test compounds and Saralasin were administered in a single dose, intravenously or subcutaneously, and the decrease in blood pressure was measured. In the Table 1 the decrease in the arterial blood pressure under the influence of an intravenous administration of the test compounds is illustrated. For comparision Saralasin is used. The data set forth in the Table 1 were obtained by calculating the average of the results of 6 experiments. The margins of error indicate the scatter of the main value.

Compound	Decrease in blood pressure (mmHg) after administration of 10 μg/kg i.v. doses [mmHg]	Decrease in blood pressure (mmHg) after administration of 20 /μg/kg i.v. doses (20 μg/kg i.v.) [mmHg]
(Hydroxyacetyl^1,Thr(Me)^8)-angiotensin II [(Hydroxyacetyl^1,Thr(Me)^8)-AngII]	-33 ± 5.3	-38 ± 4.1
CNCC(=O)N[C@@H](CCCN=C(N)N)C(=O)N[C@H](C(=O)N[C@@H](Cc1ccc(O)cc1)C(=O)N[C@H](C(=O)N[C@@H](Cc1cnc[nH]1)C(=O)N1CCC[C@H]1C(=O)N[C@@H](C)C(=O)O)C(C)C)C(C)C [Saralasin, reference compound]	-41 ± 2.5	
